According to article PMC6160999, “Pharmacokinetics, Tissue Distribution and Excretion of a Novel Diuretic (PU-48) in Rats” (Pharmaceutics, 2018):
Several values for one entry are separate records, joined by “and”; a condition that tells them apart may be missing. Equal entries are not always repeated. Where two headings read alike, the source gives them in different places.

Columns and labels:
plasma protein = experiment: Plasma protein binding by equilibrium dialysis, rat plasma; assay type: in vitro ADME; conditions: for Concentration in Buffer (post-dialysis) / Concentration in Plasma (post-dialysis) / Protein-Binding Ratio: rat plasma, n=5; for Concentration in Buffer (post-dialysis) / Concentration in Plasma (post-dialysis): 37 °C 24 h
Method: The concentration of PU-48 prototype in biological sample (feces and plasma protein binding analysis) was determined using a validated high-performance liquid chromatographic (HPLC) method our preliminary experiment (See Supplementary Materials HPLC Analysis and Method Validation). Briefly, the quantitative analysis of PU-48 was performed using a HPLC consistent of model 510 pump with a model 2487 ultraviolet detector, a model Rheodyne 7725 injector, and a column oven. The analytical conditions were as follows—The detection wavelength—293 nm; analytical column—a reversed-phase Acclaim C18 (4.6 mm × 250 mm, 5.0 µm, Dionex, Sunnyvale, CA, USA); column temperature—25 °C; mobile phase—acetonitrile—distilled water at a ratio of 60:40 (v/v); flow rate—1 mL/min. In this study, the methods for the feces samples were evaluated for specificity, linearity, precision, accuracy, and recovery (See Supplementary Materials Tables S4–S6).
The binding ratio of PU-48 to plasma protein was determined by equilibrium dialysis. A volume of 1 mL of plasma with PU-48 (0.25, 1 and 4 µg/mL) was added to a semi-permeable membrane bag (plasma chamber), the bag was place into the other clean tube with 9 mL PBS (buffer chamber). The equilibrium dialysis was performed at 37 °C for 24 h. At the end of dialysis, 500 μL each of post-dialysis samples from the plasma and the buffer chambers were collected and analyzed by HPLC method. The plasma protein binding of PU-48 was calculated from the concentration of PU-48 in PBS (free concentration) and in plasma (free + bound) according to equation: Bound (%) = (Concplasma chamber − Concbuffer chamber)/Concplasma chamber × 100%.

[1] = cited from earlier work
[2] = system: IMCD urea transporter UT-As; set-up: method as in PMID 25298345, PMID 12133842, PMID 12965892, PMID 23597791, PMID 24210002; conditions: rodents, compared to the other thienoquinolin lead compounds; cited from earlier work
[3] = Bile excretion in bile duct-cannulated rats; assay type: in vivo; conditions: bile duct-cannulated rat, oral PU-48 SNEDDS 12 mg/kg
Method: Internal standard (IS, 25 μL) was added to 50 μL plasma, urine, or bile sample in a clean tube, placed into a water bath at 37 °C, and dried under a gentle stream of nitrogen gas, followed by the addition of 0.5 mL of ethyl acetate for liquid-liquid extraction. The mixture was shaken by a vortex mixer for 3 min, and then centrifuged at 8000 rpm (4200× g) for 10 min at 4 °C. After centrifugation, the upper organic phase was transferred into a clean centrifuge tube and then dried it again. The combined upper organic phases were evaporated to dryness at 37 °C under a gentle stream of nitrogen gas. The residue was reconstituted with 50 μL acetonitrile and then centrifuged at 13,000 rpm (12,000× g) for 10 min at 4 °C, the upper liquid was transferred into sample vials. Finally, 5 μL aliquots were injected into the LC–MS/MS system to analyze. Each tissue samples were homogenized in normal saline (0.9% NaCl, 1:3, w/v), and then centrifuged at 10,000× g for 10 min to get the supernatant. Other steps were the same as plasma sample preparation.
Six male rats were given single orally administration of PU-48 (12 mg/kg, 1.2 mg/mL in the SNEDDS formulation) and housed in separate stainless-steel metabolism cages. Both feces and urine samples were collected at 0–1, 1–2, 2–4, 4–6, 6–8, 8–12, 12–24, 24–48, 48–72 and 72–96 h. In a separate study, bile samples were collected 0–1, 1–2, 2–4, 4–6, 6–8, 8–12, 12–24, 24–48, 48–72 and 72–96 h after oral administration of PU-48 (12 mg/kg, 1.2 mg/mL in the SNEDDS formulation) to six bile duct-cannulated rats.

- Concentration in Buffer (post-dialysis) (plasma protein; added 0.25 µg/mL): 0.012 ± 0.003 µg/mL
- Concentration in Plasma (post-dialysis) (plasma protein; added 0.25 µg/mL): 0.127 ± 0.007 µg/mL
- Protein-Binding Ratio (plasma protein; added 0.25 µg/mL): 90.70 ± 2.18%
- Concentration in Buffer (post-dialysis) (plasma protein; added 1 µg/mL): 0.047 ± 0.002 µg/mL
- Concentration in Plasma (post-dialysis) (plasma protein; added 1 µg/mL): 0.524 ± 0.032 µg/mL
- Protein-Binding Ratio (plasma protein; added 1 µg/mL): 91.06 ± 0.78%
- Concentration in Buffer (post-dialysis) (plasma protein; added 4 µg/mL): 0.194 ± 0.019 µg/mL
- Concentration in Plasma (post-dialysis) (plasma protein; added 4 µg/mL): 2.128 ± 0.166 µg/mL
- Protein-Binding Ratio (plasma protein; added 4 µg/mL): 90.83 ± 1.17%
- fraction unbound at 24 h (plasma protein; rat, plasma, rats, overall statement): < 0.1
- Accumulative Excretion Amount, bile ([3]; 0–1 h): 78.5 ± 60.3 ng
- Accumulative Excretion Percentage, bile ([3]; 0–1 h): 0.0027 ± 0.0021%
- Excretion Amount, bile ([3]; 0–1 h): 78.5 ± 60.3 ng
- PU-48 Concentration in bile ([3]; 0–1 h): 143.8 ± 72.5 ng/mL
- Accumulative Excretion Amount, bile ([3]; 1–2 h): 153.6 ± 115.5 ng
- Accumulative Excretion Percentage, bile ([3]; 1–2 h): 0.0054 ± 0.0041%
- Excretion Amount, bile ([3]; 1–2 h): 75.2 ± 70.3 ng
- PU-48 Concentration in bile ([3]; 1–2 h): 123.1 ± 44.3 ng/mL
- Accumulative Excretion Amount, bile ([3]; 2–4 h): 218.9 ± 128.9 ng
- Accumulative Excretion Percentage, bile ([3]; 2–4 h): 0.0076 ± 0.0046%
- Excretion Amount, bile ([3]; 2–4 h): 65.3 ± 39.8 ng
- PU-48 Concentration in bile ([3]; 2–4 h): 84.7 ± 20.1 ng/mL
- Accumulative Excretion Percentage, bile ([3]; 4–6 h): 0.0085 ± 0.0044%
- Excretion Amount, bile ([3]; 4–6 h): 24.5 ± 14.3 ng
- PU-48 Concentration in bile ([3]; 4–6 h): 47.6 ± 19.4 ng/mL
- Accumulative Excretion Percentage, bile ([3]; 6–8 h): 0.0091 ± 0.0042%
- Excretion Amount, bile ([3]; 6–8 h): 18.7 ± 13.4 ng
- PU-48 Concentration in bile ([3]; 6–8 h): 41.1 ± 21.9 ng/mL
- Accumulative Excretion Amount, bile ([3]; 8–12 h): 301.8 ± 105.8 ng
- Accumulative Excretion Percentage, bile ([3]; 8–12 h): 0.0105 ± 0.0037%
- Excretion Amount, bile ([3]; 8–12 h): 39.7 ± 45.9 ng
- PU-48 Concentration in bile ([3]; 8–12 h): 33.3 ± 17.4 ng/mL
- Accumulative Excretion Amount, bile ([3]; 12–24 h): 339.9 ± 122.8 ng
- Accumulative Excretion Percentage, bile ([3]; 12–24 h): 0.0118 ± 0.0042%
- Excretion Amount, bile ([3]; 12–24 h): 38.1 ± 37.4 ng
- PU-48 Concentration in bile ([3]; 12–24 h): 33.4 ± 15.5 ng/mL
- Accumulative Excretion Amount, bile ([3]; 24–48 h): 350.7 ± 124.1 ng
- Accumulative Excretion Percentage, bile ([3]; 24–48 h): 0.0122 ± 0.0043%
- Excretion Amount, bile ([3]; 24–48 h): 10.8 ± 3.2 ng
- PU-48 Concentration in bile ([3]; 24–48 h): 9.4 ± 5.4 ng/mL
- Accumulative Excretion Amount, bile ([3]; 48–72 h): 355.5 ± 120.8 ng
- Accumulative Excretion Percentage, bile ([3]; 48–72 h): 0.0123 ± 0.0042%
- Excretion Amount, bile ([3]; 48–72 h): 4.8 ± 4.7 ng
- PU-48 Concentration in bile ([3]; 48–72 h): 5.1 ± 3.7 ng/mL
- Accumulative Excretion Amount, bile ([3]; 72–96 h (within 96 h)): 357.5 ± 120.1 ng
- Excretion Amount, bile ([3]; 72–96 h): 2.0 ± 1.8 ng
- PU-48 Concentration in bile ([3]; 72–96 h): 1.4 ± 0.9 ng/mL
SMILES: COC(=O)c1sc2nc3ccc(OC)cc3cc2c1N [PU-48, Methyl 3-amino-6-methoxythieno [2,3-b] quinoline-2-carboxylate]
- Diuretic activity ([1]; rodents, compared to the other thienoquinolin lead compounds): more potent diuretic activity
- Diuretic activity ([1]; wild-type and UT-gene knockout mice): potent diuretic activity
- Selective inhibition towards IMCD urea transporter UT-As [2]: higher selective inhibition
- Accumulative Excretion Percentage, bile ([3]; 72–96 h (within 96 h)): 0.0124 ± 0.0041% and 0.0124 ± 0.004% and 0.0124%
